Data published in PubChem BioAssay AID328 (DTP/NCI, 2004).
Several values for one entry are separate records, joined by “and”; a condition that tells them apart may be missing. Identical values can stand only once. Inconclusive results and toxic doses are left out.

Test system: BDF1 mice, P388 leukemia ip, median survival T/C
Assay: NCI In Vivo Anticancer Drug Screen. Data for tumor model P388 Leukemia (intraperitoneal) in B6D2F1 (BDF1) mice
Settings: endpoint: median survival time, higher = longer survival
Method in brief: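 Antitumour effect was judged in vivo: survival in drug-treated mice, normalised to that of vehicle-dosed controls, gives the reported T/C.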

[1] = dose: 200.0 mg/kg/injection, schedule: Q04DX003 (ip), vehicle: saline
[2] = dose: 400.0 mg/kg/injection, schedule: Q04DX003 (ip), vehicle: Klucel (hydroxypropylcellulose) (HPC)
[3] = dose: 400.0 mg/kg/injection, schedule: Q04DX003 (ip), vehicle: saline
[4] = dose: 50.0 mg/kg/injection, schedule: Q01DX009 (ip), vehicle: saline with Tween-80
[5] = dose: 100.0 mg/kg/injection, schedule: Q01DX009 (ip), vehicle: saline with Tween-80
[6] = dose: 200.0 mg/kg/injection, schedule: Q04DX003 (ip), vehicle: Klucel (hydroxypropylcellulose) (HPC)
[7] = dose: 100.0 mg/kg/injection, schedule: Q01DX009 (ip), vehicle: Klucel (hydroxypropylcellulose) (HPC)
[8] = dose: 200.0 mg/kg/injection, schedule: Q01DX009 (ip), vehicle: Klucel (hydroxypropylcellulose) (HPC)
[9] = dose: 12.5 mg/kg/injection, schedule: Q01DX009 (ip), vehicle: saline
[10] = dose: 12.5 mg/kg/injection, schedule: Q04DX003 (ip), vehicle: saline
[11] = dose: 25.0 mg/kg/injection, schedule: Q04DX003 (ip), vehicle: saline
[12] = dose: 50.0 mg/kg/injection, schedule: Q01DX009 (ip), vehicle: saline
[13] = dose: 50.0 mg/kg/injection, schedule: Q04DX003 (ip), vehicle: saline
[14] = dose: 100.0 mg/kg/injection, schedule: Q01DX009 (ip), vehicle: saline
[15] = dose: 100.0 mg/kg/injection, schedule: Q04DX003 (ip), vehicle: saline
[16] = dose: 100.0 mg/kg/injection, schedule: Q04DX003 (ip), vehicle: saline with Tween-80
[17] = dose: 200.0 mg/kg/injection, schedule: Q04DX003 (ip), vehicle: saline with Tween-80
[18] = dose: 400.0 mg/kg/injection, schedule: Q04DX003 (ip), vehicle: saline with Tween-80
[19] = dose: 200.0 mg/kg/injection, schedule: Q01DX009 (ip), vehicle: saline with Tween-80
[20] = dose: 400.0 mg/kg/injection, schedule: Q01DX009 (ip), vehicle: saline with Tween-80
[21] = dose: 50.0 mg/kg/injection, schedule: Q04DX003 (ip), vehicle: saline with Tween-80

## Cc1cc(NCCCCCCNc2cc(C)nc3ccc(N)cc23)c2cc(N)ccc2n1
dose: 37.5 mg/kg/injection, schedule: Q04DX003 (ip), vehicle: saline
  T/C: 163 % of control
dose: 75.0 mg/kg/injection, schedule: Q04DX003 (ip), vehicle: saline
  T/C: 159 % of control
dose: 150.0 mg/kg/injection, schedule: Q04DX003 (ip), vehicle: saline
  T/C: 218 % of control
dose: 198.0 mg/kg/injection, schedule: Q04DX003 (ip), vehicle: Klucel (hydroxypropylcellulose) (HPC)
  T/C: 213 % of control
[1]
  T/C: 210 % of control
dose: 300.0 mg/kg/injection, schedule: Q04DX003 (ip), vehicle: saline
  T/C: 230 % of control and 213 % of control
[2]
  T/C: 254 % of control
[3]
  T/C: 250 % of control

## c1ccc(NNc2c3ccccc3nc3ccccc23)cc1
[4]
  T/C: 102 % of control
[5]
  T/C: 102 % of control

## C/C(=N\Nc1nc2ccccc2o1)c1ccncc1
[6]
  T/C: 104 % of control
[2]
  T/C: 86 % of control

## Cc1ccc(NC(=O)N(CCCCl)N=O)cc1
dose: 25.0 mg/kg/injection, schedule: Q01DX009 (ip), vehicle: Klucel (hydroxypropylcellulose) (HPC)
  T/C: 105 % of control
dose: 50.0 mg/kg/injection, schedule: Q01DX009 (ip), vehicle: Klucel (hydroxypropylcellulose) (HPC)
  T/C: 119 % of control
[7]
  T/C: 111 % of control
[8]
  T/C: 95 % of control

## O=[N+]([O-])c1ccc(/C=N/c2nccs2)o1
dose: 3.12 mg/kg/injection, schedule: Q04DX003 (ip), vehicle: saline
  T/C: 107 % of control
dose: 6.25 mg/kg/injection, schedule: Q04DX003 (ip), vehicle: saline
  T/C: 106 % of control and 107 % of control
[9]
  T/C: 92 % of control
[10]
  T/C: 92 % of control and 107 % of control and 115 % of control
dose: 25.0 mg/kg/injection, schedule: Q01DX009 (ip), vehicle: saline
  T/C: 90 % of control
[11]
  T/C: 107 % of control and 111 % of control and 115 % of control
[12]
  T/C: 94 % of control
[13]
  T/C: 101 % of control and 107 % of control
[14]
  T/C: 86 % of control
[15]
  T/C: 109 % of control and 110 % of control
dose: 200.0 mg/kg/injection, schedule: Q01DX009 (ip), vehicle: saline
  T/C: 98 % of control

## NC(=S)N/N=C\c1nccc2c(C(F)(F)C(F)(F)C(F)(F)F)cccc12
[16]
  T/C: 110 % of control
[17]
  T/C: 98 % of control
[18]
  T/C: 88 % of control

## Nc1nc(N)nc(-c2ccc([N+](=O)[O-])o2)n1
[5]
  T/C: 102 % of control
[19]
  T/C: 96 % of control
[20]
  T/C: 106 % of control

## COc1cccc2c1C(=O)c1c(O)c3c(c(O)c1C2=O)C[C@@](O)(C(=O)CO)C[C@@H]3OC1CC(NC(C)=O)C(O)C(C)O1 (stereo partly drawn)
dose: 25.0 mg/kg/injection, schedule: Q04DX009 (ip), vehicle: other
  T/C: 119 % of control
dose: 100.0 mg/kg/injection, schedule: Q04DX009 (ip), vehicle: other
  T/C: 119 % of control
dose: 200.0 mg/kg/injection, schedule: Q04DX009 (ip), vehicle: other
  T/C: 119 % of control

## CN(C)CCCCc1cn(-c2ccccc2)c2ccccc12
[9]
  T/C: 105 % of control
dose: 27.5 mg/kg/injection, schedule: Q01DX001 (ip), vehicle: saline
  T/C: 100 % of control
dose: 33.0 mg/kg/injection, schedule: Q01DX009 (ip), vehicle: saline
  T/C: 109 % of control
[12]
  T/C: 104 % of control
dose: 55.0 mg/kg/injection, schedule: Q01DX001 (ip), vehicle: saline
  T/C: 108 % of control
dose: 110.0 mg/kg/injection, schedule: Q01DX001 (ip), vehicle: saline
  T/C: 108 % of control

## CC(=O)OC1C(=O)C(C)(C)CSCC1(C)C (stereo not drawn)
[7]
  T/C: 104 % of control
[8]
  T/C: 95 % of control
dose: 400.0 mg/kg/injection, schedule: Q01DX009 (ip), vehicle: Klucel (hydroxypropylcellulose) (HPC)
  T/C: 104 % of control

## CC1(C)OCC(C2OC3OC(C)(C)OC3C2O)O1 (stereo not drawn)
dose: 20.0 mg/kg/injection, schedule: Q01DX009 (ip), vehicle: saline
  T/C: 107 % of control
dose: 40.0 mg/kg/injection, schedule: Q01DX009 (ip), vehicle: saline
  T/C: 109 % of control
dose: 80.0 mg/kg/injection, schedule: Q01DX009 (ip), vehicle: saline
  T/C: 108 % of control

## O=C1c2ccccc2C(=O)N1C1CCC(O)CC1 (stereo not drawn)
dose: 25.0 mg/kg/injection, schedule: Q01DX009 (ip), vehicle: saline with Tween-80
  T/C: 109 % of control
dose: 25.0 mg/kg/injection, schedule: Q04DX003 (ip), vehicle: saline with Tween-80
  T/C: 104 % of control
[4]
  T/C: 86 % of control
[21]
  T/C: 109 % of control
[5]
  T/C: 90 % of control
[16]
  T/C: 104 % of control

## CCN1CCC(O)(c2ccc(Br)cc2)C1 (stereo not drawn)
[12]
  T/C: 106 % of control
[14]
  T/C: 97 % of control

## COc1ccc2cc1Oc1ccc(cc1)C[C@H]1c3cc(c(OC)cc3CCN1C)Oc1c(OC)c(OC)cc3c1[C@H](C2)N(C)CC3
[10]
  T/C: 105 % of control
[11]
  T/C: 90 % of control
[13]
  T/C: 110 % of control
[15]
  T/C: 110 % of control

## Nc1[nH]c(=S)[nH]c(=O)c1NC(=O)C1CC1
[5]
  T/C: 100 % of control
[15]
  T/C: 104 % of control
[19]
  T/C: 100 % of control
[1]
  T/C: 104 % of control
[20]
  T/C: 100 % of control
[3]
  T/C: 100 % of control

## COc1cc2cc3c4cc(OC)c(OC)cc4cc[n+]3cc2cc1OC
dose: 5.0 mg/kg/injection, schedule: Q01DX009 (ip), vehicle: saline with Tween-80
  T/C: 109 % of control
dose: 10.0 mg/kg/injection, schedule: Q01DX009 (ip), vehicle: saline with Tween-80
  T/C: 118 % of control
dose: 40.0 mg/kg/injection, schedule: Q01DX009 (ip), vehicle: saline with Tween-80
  T/C: 159 % of control
dose: 40.0 mg/kg/injection, schedule: Q04DX003 (ip), vehicle: saline
  T/C: 163 % of control
dose: 80.0 mg/kg/injection, schedule: Q04DX003 (ip), vehicle: saline
  T/C: 174 % of control
dose: 160.0 mg/kg/injection, schedule: Q01DX009 (ip), vehicle: saline with Tween-80
  T/C: 154 % of control
dose: 160.0 mg/kg/injection, schedule: Q04DX003 (ip), vehicle: saline with Tween-80
  T/C: 154 % of control
dose: 160.0 mg/kg/injection, schedule: Q04DX003 (ip), vehicle: saline
  T/C: 166 % of control
dose: 320.0 mg/kg/injection, schedule: Q04DX003 (ip), vehicle: saline with Tween-80
  T/C: 122 % of control
dose: 320.0 mg/kg/injection, schedule: Q04DX003 (ip), vehicle: saline
  T/C: 120 % of control

## O=C(O)c1c[nH]n2c(=S)ncnc12
[4]
  T/C: 93 % of control
[21]
  T/C: 104 % of control
[5]
  T/C: 104 % of control
[16]
  T/C: 91 % of control
[19]
  T/C: 100 % of control
[17]
  T/C: 87 % of control
[20]
  T/C: 93 % of control
[18]
  T/C: 95 % of control

## NC(=O)c1ccc(C(F)(F)F)cc1O
dose: 100.0 mg/kg/injection, schedule: Q04DX003 (ip), vehicle: Klucel (hydroxypropylcellulose) (HPC)
  T/C: 90 % of control
[6]
  T/C: 90 % of control

## Cc1ccnc(NS(=O)(=O)c2ccc(N=Nc3nc4[nH]c(N)nc(=S)c4[nH]3)cc2)n1
dose: 1.56 mg/kg/injection, schedule: Q01DX009 (ip), vehicle: Klucel (hydroxypropylcellulose) (HPC)
  T/C: 151 % of control
dose: 3.12 mg/kg/injection, schedule: Q01DX009 (ip), vehicle: Klucel (hydroxypropylcellulose) (HPC)
  T/C: 112 % of control
dose: 6.25 mg/kg/injection, schedule: Q01DX009 (ip), vehicle: Klucel (hydroxypropylcellulose) (HPC)
  T/C: 108 % of control

## CCCCOCCN1CCN(CCCN2c3ccccc3Sc3ccc(C(F)(F)F)cc32)CC1
[10]
  T/C: 111 % of control
[11]
  T/C: 112 % of control
[13]
  T/C: 153 % of control

## ClC12CC3CC(CC(C3)C1)C2
dose: 50.0 mg/kg/injection, schedule: Q04DX003 (ip), vehicle: acetone
  T/C: 104 % of control
dose: 100.0 mg/kg/injection, schedule: Q04DX003 (ip), vehicle: acetone
  T/C: 113 % of control
dose: 200.0 mg/kg/injection, schedule: Q04DX003 (ip), vehicle: acetone
  T/C: 109 % of control

## c1ccc(OCC2c3ccccc3Nc3ccccc32)cc1
dose: 100.0 mg/kg/injection, schedule: Q01DX001 (ip), vehicle: saline with Tween-80
  T/C: 91 % of control
dose: 200.0 mg/kg/injection, schedule: Q01DX001 (ip), vehicle: saline with Tween-80
  T/C: 94 % of control
dose: 400.0 mg/kg/injection, schedule: Q01DX001 (ip), vehicle: saline with Tween-80
  T/C: 100 % of control
